From patent publication EP0591697B1, “Cloning and characterization of the growth hormone releasing hormone receptor” (Thorner, Michael Oliver, priority 1992, dated 1994)
Entries after “also recorded” stand apart in the source; their conditions may differ. Where no end group is shown, it is not given here.

Assays:
GHRH-R [1] = test: GHRH binding assay in crude anterior pituitary membrane pellets (125I-GHRHa); set-up: species or system ovine; settings: for displacement of GHRH in ovine pituitary: at 500 nM; for competition for the GHRHa binding site: at 100 nanomolar concentrations
Description: Specific binding is defined as the difference in the binding seen with 20 pM iodinated analog alone and binding of the analog in the presence of 10 nM non-iodinated GHRHa.
All steps were performed at 4°C. Frozen ovine or bovine anterior pituitaries (ovine: approximately 1 gm/pituitary obtained from Dr. Ian Clarke, Melbourne, Australia; bovine: approximately 2.5 gm/pituitary special handling from Pel-Freez, of Rogers, Arkansas) were washed of blood, cleaned of connective tissue and homogenized (using a Dounce homogenizer) in 50mM HEPES buffer, 100 mM NaCl, 10mM EDTA, 0.1 µM EGTA, pH 7.4 with 0.5 mM PMSF (phenyl methyl sulfonyl fluoride), 10 µg/ml leupeptin, 10 µg/ml pepstatin A, and 200 U/ml (units/ml) aprotinin. This buffer is used to remove endogenous GTP which might be bound to G proteins and to restore high affinity binding. The homogenate was spun at top speed in a microfuge and the supernatant discarded. The upper (membrane) layer of the pellet was then gently resuspended in binding buffer containing 50 mM Tris buffer, 5 mM EGTA, 5 mM MgCl2, 50µg/ml alamethicin, 30 µg/ml bacitracin and other protease inhibitors as above.
1/50 pituitary equivalent per tube was incubated in binding buffer with approximately 100,000 counts of iodinated probe in a volume of 500 µl at room temperature for 1 hour. The total counts delivered and the percent of counts bound for each tube was determined with 3 to 6 replicates per experimental condition. Saturation binding profiles were analyzed with the computer program Ligand which performs a statistically weighted least squares fit to the exact ligand binding equation in nontransformed coordinates.

GHRH-R [2] = test: Photoaffinity cross-linking of receptor in pituitary membranes, SDS-PAGE autoradiography; assay type: binding, ovine
Description: Photoprobe binding in ovine pituitary membrane pellets was determined by γ-counting and UV induced cross-linking was examined by autoradiagraphy of sodium dodecylsulfate polyacrylamide electrophoresis (SDS-PAGE) gels. ^125I-GHRHa-ANB-NOS probe bound with an affinity of about one nanomole, nM (compared to about 160 picomole, pM, for GHRHa).
Photoprobe binding to membranes was evaluated with crude membrane binding assay and then analyzed further by SDS-PAGE electrophoresis to identify the binding sites. Photoprobes were incubated in the dark, photolysed for 10 minutes with a long wave (366 nm) UV lamp, and then the samples were pelleted. The pellets were counted and then extracted by boiling directly in SDS sample buffer (total SDS extracts). Alternatively, the labeled pellets were extracted in a mild detergent solution (5 mM CHAPS) centrifuged, and the chloroform/methanol concentrated supernatants denatured with SDS buffer (CHAPS extracts). These samples were then electrophoresed in SDS gels and autoradiographed.

[3] = target: T1, secretin and VIP receptors (Homo sapiens, UniProt P47872); settings: human pancreas, cited from earlier work; for inhibition: at 10 µM, 125I-secretin
T1 construct: host or cells: human pancreas
T1 sequence (P47872 23-440): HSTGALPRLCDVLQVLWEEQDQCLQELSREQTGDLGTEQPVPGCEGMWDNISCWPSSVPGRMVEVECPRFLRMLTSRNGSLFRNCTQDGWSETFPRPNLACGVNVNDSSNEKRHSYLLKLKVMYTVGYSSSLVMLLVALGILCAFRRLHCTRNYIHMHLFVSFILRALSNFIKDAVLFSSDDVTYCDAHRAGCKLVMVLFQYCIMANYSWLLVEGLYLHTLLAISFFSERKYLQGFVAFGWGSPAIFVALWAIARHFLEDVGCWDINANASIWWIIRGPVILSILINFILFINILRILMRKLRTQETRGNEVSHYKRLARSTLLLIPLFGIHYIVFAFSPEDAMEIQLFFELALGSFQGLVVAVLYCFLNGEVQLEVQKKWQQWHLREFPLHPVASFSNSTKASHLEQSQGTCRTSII

GHRH-R [4] = target: T2, GHRH-R (Homo sapiens, UniProt Q02643); test: Iodinated GHRHa binding to COS cells / COS cell membranes transfected with pCDM8 containing HAP 7 cDNA; settings: for binding of iodinated GHRH in presence of peptide: 100 nM of peptide
T2 construct: expressed in transfected cells
T2 sequence (Q02643 23-423): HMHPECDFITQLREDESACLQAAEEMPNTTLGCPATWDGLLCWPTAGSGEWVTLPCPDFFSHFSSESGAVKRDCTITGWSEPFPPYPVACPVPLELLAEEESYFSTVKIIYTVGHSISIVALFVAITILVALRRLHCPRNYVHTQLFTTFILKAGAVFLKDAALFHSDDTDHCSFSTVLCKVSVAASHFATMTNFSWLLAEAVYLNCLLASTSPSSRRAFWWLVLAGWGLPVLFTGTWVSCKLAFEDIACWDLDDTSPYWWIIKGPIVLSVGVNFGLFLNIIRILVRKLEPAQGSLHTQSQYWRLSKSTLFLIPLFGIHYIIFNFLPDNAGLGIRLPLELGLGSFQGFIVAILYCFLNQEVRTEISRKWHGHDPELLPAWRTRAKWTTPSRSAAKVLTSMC
Description: The bars indicate the total counts bound to the cells after incubation with ^125I-GHRHa or in the presence of gradually increasing amounts of non-iodinated GRF.
Binding in the presence of increasing concentrations of competing peptides is shown. […] Each point represents an N of 6 ± standard error. Non-specific binding was 20-30% of total counts in COS cell membranes, and 40-60% in crude pituitary membranes.
Cos-1 cells were transfected with the vector formed by splicing pCDM8 and HAP cDNA, and Cos-1 cell membranes were prepared 72 hours subsequently. Cos-1 cells were transfected using 10 µg of plasmid DNA per 6x10^5 cells in a 100-mm dish using the DEAE-dextran method described by Cullen. […] COS cell cultures were transfected in parallel with pCDM8 containing a cDNA encoding the rat AT1 angiotensin II receptor.

O[C@H](CS)[C@H](O)CS (racemic) [DTT, dithiothreitol]
specific binding in the GHRH assay after preincubation (GHRH-R [1]; 1 mM dithiothreitol): completely eliminated

Nc1nc2c(ncn2[C@@H]2O[C@H](COP(=O)(O)OP(=O)(O)OP(O)(O)=S)[C@@H](O)[C@H]2O)c(=O)[nH]1 [GTPγS]
displacement of both photoprobes from membrane pellets (GHRH-R [1]; 50 µM GTPγS): partially displaced | reduction of specific binding of GHRHa radioligand (GHRH-R [1]; 50 µM GTPγS): up to 65% | reduction of 55 kDa cross-linked band (GHRH-R [2]; 50 µM GTPγS): over 50%

CC[C@H](C)[C@H](NC(=O)CNC(=O)[C@H](CC(=O)O)NC(=O)[C@H](CO)NC(=O)[C@@H](N)Cc1c[nH]cn1)C(=O)N[C@@H](Cc1ccccc1)C(=O)N[C@H](C(=O)N[C@@H](CC(=O)O)C(=O)N[C@@H](CO)C(=O)N[C@@H](Cc1ccc(O)cc1)C(=O)N[C@@H](CO)C(=O)N[C@@H](CCCNC(=N)N)C(=O)N[C@@H](Cc1ccc(O)cc1)C(=O)N[C@@H](CCCNC(=N)N)C(=O)N[C@@H](CCCCN)C(=O)N[C@@H](CCC(N)=O)C(=O)N[C@@H](CCSC)C(=O)N[C@@H](C)C(=O)N[C@H](C(=O)N[C@@H](CCCCN)C(=O)N[C@@H](CCCCN)C(=O)N[C@@H](Cc1ccc(O)cc1)C(=O)N[C@@H](CC(C)C)C(=O)N[C@@H](C)C(=O)N[C@@H](C)C(=O)N[C@H](C(=O)N[C@@H](CC(C)C)C(=O)NCC(=O)N[C@@H](CCCCN)C(=O)N[C@@H](CCCNC(=N)N)C(=O)N[C@@H](Cc1ccc(O)cc1)C(=O)N[C@@H](CCCCN)C(=O)N[C@@H](CCC(N)=O)C(=O)N[C@@H](CCCNC(=N)N)C(=O)N[C@H](C(=O)N[C@@H](CCCCN)C(=O)N[C@@H](CC(N)=O)C(=O)N[C@@H](CCCCN)C(N)=O)C(C)C)C(C)C)C(C)C)[C@@H](C)O [PACAP]
displacement of GHRH in ovine pituitary (GHRH-R [1]): significant displacement | competition for the GHRHa binding site (GHRH-R [1]): no competition; also recorded: did not compete

GHRH(1-29)-NH2
inhibition [3]: 20%

PHM: competing peptide of the VIP family tested at 100 nM (HADGVFTSDFSKLLGQLSAKKYLESLM; ends and bridges not checked; UniProt P01282 81-107, looked up)
binding of iodinated GHRH in presence of peptide (GHRH-R [4]): uneffected

VIP: vasoactive intestinal peptide
inhibition [3]: 20% | displacement of GHRH in ovine pituitary (GHRH-R [1]): not | competition for the GHRHa binding site (GHRH-R [1]): no competition; also recorded: did not compete | effect on 55 kDa cross-linked band (GHRH-R [2]; 100 nM VIP): unaffected | effect on bound counts of GHRHa (GHRH-R [4]; 100 nM VIP, transfected COS cells, Figure 15): no effect | binding of iodinated GHRH in presence of peptide (GHRH-R [4]): uneffected

calcitonin
binding of iodinated GHRH in presence of peptide (GHRH-R [4]): uneffected

galanin
binding of iodinated GHRH in presence of peptide (GHRH-R [4]): uneffected

helodermin
Kd ([3]; using 125I-secretin, read-out: Kds): 200 nM

parathyroid hormone
binding of iodinated GHRH in presence of peptide (GHRH-R [4]): uneffected

secretin
binding of iodinated GHRH in presence of peptide (GHRH-R [4]): uneffected

somatostatin
binding of iodinated GHRH in presence of peptide (GHRH-R [4]): uneffected
